Tests used:
CCR2B = target: T1, CCR2B (Homo sapiens, UniProt P41597); assay: 125I-MCP-1 radioligand binding assay, membranes from CCR2B-transfected CHO cells; settings: competition with 0.15 nM 125I-MCP-1, CCR2B-transfected CHO cell membranes, Cheng-Prusoff
T1 construct: expressed in transfected cells; host or cells: CHO cells (membrane preparation)
T1 sequence (P41597 1-360 isoform P41597-2): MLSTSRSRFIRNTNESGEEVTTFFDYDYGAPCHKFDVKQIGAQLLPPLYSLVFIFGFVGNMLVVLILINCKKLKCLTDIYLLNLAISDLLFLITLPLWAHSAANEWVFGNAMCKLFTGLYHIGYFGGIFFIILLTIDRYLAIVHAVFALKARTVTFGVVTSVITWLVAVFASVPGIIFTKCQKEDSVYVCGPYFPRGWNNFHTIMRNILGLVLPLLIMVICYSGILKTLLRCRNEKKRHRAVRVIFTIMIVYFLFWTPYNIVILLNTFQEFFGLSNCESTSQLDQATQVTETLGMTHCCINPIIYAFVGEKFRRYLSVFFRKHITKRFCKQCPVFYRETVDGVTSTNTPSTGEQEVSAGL
Protocol: Radioligand Binding Assay.
^125I-MCP-1 binding assays were performed in 96:well plates with 40 μg of protein per well. Compounds were dissolved and diluted in DMSO to 100× dilutions. A 10× concentration range of compounds was prepared in binding buffer (10% DSMO). Competition binding assays contained the following components in a total volume of 250 μl: 25 μl of the appropriate compound dilution (final concentration of 1% DMSO), 200 μl membranes from CCR2B-transfected CHO cells dissolved in binding buffer and 25 μl ^125I-MCP-1 (Bolton and Hunter labeled, Amersham, specific activity=2000 Ci/mmol, 0.15 nM final). Binding buffer was composed of 25 mM HEPES, 5 mM MgCl2, 1 mM CaCl2, 0.5% protease-free bovine serum albumin, pH 7.4. After 90 minutes incubation at 25° C. membranes were harvested on GF/B filters—presoaked in 0.5% polyethylenimine, followed by washing with buffer containing 25 mM HEPES, 5 mM MgCl2, 1 mM CaCl2, 5 mM NaCl, pH 7.4. Filter bound radioactivity was determined by liquid scintillation counting. EC50 values (μM) and Ki values (μM) were calculated. The ED50 value indicates the concentration of the test compound that competes with MCP-1 for half of the specific binding sites; the Ki value indicates the equilibrium dissociation constant, i.e. the concentration of the test compound that will bind to half of the binding sites at equilibrium in the absence of radioligand or other competitors. EC50 values and Ki values were calculated using non-linear regression in Graphpad Prism. Prism calculates the Ki or affinity of the receptor for the competing drug using the equation of Cheng and Prusoff (Biochem. Pharmacol. 1973, 22: 3099-3108). A low Ki indicates a high affinity of the receptor for the test compound. [formula] wherein Kd describes the affinity of the radioligand for the receptor, i.e. the concentration of the radioligand that will bind to half of the binding sites at equilibrium in the absence of competitors.
Table 6 lists Ki values (μM) obtained in the above-described test for compounds of formula (I).

CCR2 [1] = target: T2, CCR2 (Homo sapiens, UniProt P41597); assay: Chemotactic response of human PBMC to MCP-1; assay type: cell-based; parameters: Mononuclear cells from human heparinized peripheral blood (PBMC) were isolated; endogenous in cells; host or cells: human peripheral blood mononuclear cells; settings: inhibition of migration of human PBMC to 30 ng/ml hMCP-1, 105 minutes
T2 sequence (P41597 1-360 isoform P41597-2): T1 sequence (P41597 1-360 isoform P41597-2)
Protocol: The CCR2 antagonistic activity of the compounds of the present invention can also be determined by measuring the effect of the compounds on the chemotactic response of cells in the presence of a chemokine, such as for example MCP-1.
Mononuclear cells from human heparinized peripheral blood (PBMC) were isolated using Ficoll-Paque gradient centrifugation (Amersham Biosciences). Assays of chemotactic responsiveness were performed using disposable 96-well chemotaxis chambers (ChemoTx, Neuro Probe) with 5-μm pore size polycarbonate (PVP-free) filter membranes. Mononuclear cells were fluorescently labeled with 5 μg/ml Calcein-AM (Molecular Probes, Eugene, Oreg.) at 37° C. for 30 minutes. Labeled cells were washed twice and resuspended at 5×10^6 cells/ml in Hanks' Balanced Salt Solution (Gibco BRL) supplemented with 0.2% bovine serum albumin. Subsequently, cells were pre-incubated for 10 minutes at room temperature with serial dilutions of the compounds in DMSO (dimethylsulfoxide) (final DMSO concentration of 0.2%). Bottom wells of the chemotaxis chamber were loaded with 28 μl medium containing 30 ng/ml recombinant hMCP-1 (R&D) or buffer only. Pre-treated cells (100.000 cells) were added in triplicate to the topside of the filter (20 μl) and incubated at 37° C. in humidified air containing 5% CO2. After 105 minutes incubation, the non-migrated cells were removed from the top of the filter by gently wiping the filter with a tissue. The migrated cells were measured using a fluorescent plate reader (λexcitation=485 nm; λemission=538 nm). The chemotactic response can be expressed as chemotactic index (C.I.), being the ratio of the means of migrated cells in the presence of MCP-1 and the means of migrated cells in the absence of chemokine. Percentage inhibition was calculated using the formula: [formula]
with Fsample, the fluorescence of the cells pre-incubated with 10, 1, 0.1, 0.01 or 0.001 μM compound and migrated to 30 ng/ml MCP-1 in the bottom wells; FMCP-1, the fluorescence of the cells pre-incubated with buffer-0.2% DMSO and migrated to 30 ng/ml MCP-1 and Fbuffer, the fluorescence of cells pre-incubated with buffer-0.2% DMSO and spontaneous migrated to buffer in the bottom wells. Table 7 lists the IC50 values (μM) obtained in the above-described test for compounds of formula (I). Assays were run in triplicate and repeated 2-7 times.

CCR2 [2] = target: T2, CCR2; assay: Inhibition of MCP-1 induced Ca-flux in human THP-1 cells; assay type: cell-based; parameters: host or cells: THP-1 (human monocytic cell line); settings: -log IC50 (molar), inhibition of specific MCP-1 (10^-7 M hMCP-1) induced Ca2+ flux, FLIPR
Protocol: Inhibition of MCP-1 Induced Ca-Flux in Human THP-1 Cells
MCP-1 binding to the CCR2 receptor induces a rapid and transient intracellular release of Ca^2+ (secondary messenger) in several cell lines (Charo et al, PNAS 1994). Free Ca^2+ levels can be measured using a Ca^2+ sensitive dye. When the CCR2 receptor is blocked with a CCR2 receptor antagonist, the MCP-1 induced release of Ca^2+ is inhibited.
Human THP-1 cells (monocytic cell line, ATCC TIB-202) were cultured in RPMI 1640 medium supplemented with 10% fetal calf serum (FCS), 1% L-Glutamine, penicillin (50 U/ml) and streptomycin (50 μg/ml) (all GIBCO BRL, Gent). After centrifugation, cells were loaded for 30 minutes with the Ca^2+ sensitive fluorescent dye Fluo-3 μM (Molecular Probes, Leiden, Netherlands) (2 million cells/ml in RPMI medium containing 4 μM Fluo-3 μM, 20 mM HEPES, 0.1% Bovine Serum Albumin (BSA) and 5 mM probenecid). Excess dye was removed by 3-fold washing with buffer (5 mM HEPES, 140 mM NaCl, 1 mM MgCl2, 5 mM KCl, 10 mM glucose, 2.5 mM probenecid, 1.25 mM CaCl2, 0.1% BSA; all further incubations were done in this buffer). Cells were plated at a density of 150 000 cells/well in dark-wall 96-well plates (Costar, Cambridge, Mass.) and sedimented by centrifugation (1 minute). The cells were pre-incubated for 20 minutes with test compound. Then, 10^−7 M hMCP-1 (Bachem, Bubendorf, Switserland) was added. Changes in intracellular free Ca^2+ concentration were measured using the Fluorescent Imaging Plate Reader (FLIPR, Molecular Devices, Munchen, Germany). Fluorescence was recorded every second from 10 seconds before the addition of the MCP-1 till 2 minutes after the addition (first minute: 60 records with 1 second intervals, second minute 20 records with 3 second intervals). The maximal fluorescence obtained during this time frame was used for further calculations.
Table 5 reports pIC50 values obtained in the above-described test for compounds of formula (I). pIC50 defines—log IC50 wherein IC50 is the molar concentration of the test compound which inhibits 50% of specific MCP-1 induced Ca^2+ flux.

| melting point | Ki (CCR2B) | IC50 (CCR2 [1]) | IC50 (CCR2 [2]) | SMILES |
| --- | --- | --- | --- | --- |
| 301.8 to 303.3 °C |  |  |  | CCC(c1ccc(Cl)c(Cl)c1)n1cc(-c2sc(N)nc2C)nc1S.Cl (stereo not drawn) |
|  | 30 nM | 108 nM |  | CCC(c1ccc(F)c(F)c1)n1c(C(=O)OC)c(-c2ccno2)[nH]c1=S (stereo in doubt) [Compound 53, (S)-3-[1-(3,4-difluoro-phenyl)propyl]-5-isoxazol-5-yl-2-thioxo-2,3-dihydro-1H-imidazole-4-carboxylic acid methyl ester] |
|  |  |  | 55 nM | CCC(c1ccc(Cl)c(Cl)c1)n1c(C(=O)OC)c(-c2cccs2)[nH]c1=S (stereo not drawn) [Compound 6] |
|  |  |  | 11.7 nM | CCC(c1ccc(F)c(F)c1)n1c(S)nc(-c2ccno2)c1C(=O)OC (stereo not drawn) [Compound 7] |
|  |  |  | 35.5 nM | CCC(c1ccc(Cl)c(Cl)c1)n1c(S)nc(-c2nnco2)c1C(=O)OC (stereo not drawn) [Compound 9] |
| 228 to 229 °C | 300 nM |  |  | CCC(c1ccc(F)c(F)c1)n1c(C(N)=O)c(-c2nnc(C)o2)[nH]c1=S (stereo not drawn) [Compound 13] |
| 165 to 166 °C |  |  |  | CCC(c1ccc(F)c(F)c1)n1c(C(=O)NCCO)c(-c2nnc(C)o2)[nH]c1=S (stereo not drawn) [Compound 14] |
|  |  |  | 31.6 nM | CCC(c1ccc(F)c(F)c1)n1c(S)nc(-c2cc(C)on2)c1C(=O)OCCOC (stereo not drawn) [Compound 16] |
|  |  | 24 nM |  | CCC(c1ccc(Cl)c(Cl)c1)n1c(C(=O)O)c(-c2cccs2)[nH]c1=S (stereo not drawn) [Compound 23] |
|  |  |  | 72.4 nM | CCC(c1ccc(Cl)c(Cl)c1)n1c(C(=O)OC)c(-c2snnc2C)[nH]c1=S (stereo not drawn) [Compound 24] |
|  |  |  | 13.2 nM | CCC(c1ccc(Cl)c(Cl)c1)n1c(C(=O)OC)c(-c2ccno2)[nH]c1=S (stereo not drawn) [Compound 25] |
|  | 50 nM |  | 7.94 nM | CCC(c1ccc(Cl)c(Cl)c1)n1c(C(=O)OC)c(-c2ccno2)[nH]c1=S (stereo not drawn) [Compound 26] |
|  |  |  | 33.1 nM | CCC(c1ccc(Cl)c(Cl)c1)n1c(C(=O)OC)c(-c2nnc(C)o2)[nH]c1=S (stereo not drawn) [Compound 27] |
|  | 10 nM | 367 nM | 15.8 nM | CCC(c1ccc(Cl)c(Cl)c1)n1c(C(=O)OC)c(-c2cc(C)on2)[nH]c1=S (stereo not drawn) [Compound 28] |
|  | 70 nM | 214 nM | 75.9 nM | CCC(c1ccc(Cl)c(Cl)c1)n1c(C(=O)OC)c(-c2ccccc2)[nH]c1=S (stereo not drawn) [Compound 31] |
|  |  |  | 12.6 nM | CCC(c1ccc(Cl)c(Cl)c1)n1c(C(=O)OC)c(-c2ccncc2)[nH]c1=S (stereo not drawn) [Compound 33] |
|  |  |  | 25.1 nM | CCC(c1ccc(Cl)c(Cl)c1)n1c(C(=O)OC)c(-c2cnccn2)[nH]c1=S (stereo not drawn) [Compound 34] |
|  | 70 nM | 244 nM | 39.8 nM | CCC(c1ccc(Cl)c(Cl)c1)n1c(C(N)=O)c(-c2nnc(C)o2)[nH]c1=S (stereo not drawn) [Compound 36] |
|  | 30 nM |  | 7.94 nM | CC[C@H](c1ccc(F)c(F)c1)n1c(C(=O)OC)c(-c2ccno2)[nH]c1=S [Compound 43] |
|  |  |  | 12.6 nM | CCCC(c1ccc(F)c(F)c1)n1c(C(=O)OC)c(-c2ccno2)[nH]c1=S (stereo not drawn) [Compound 48] |
|  |  |  | 25.1 nM | CCCC(c1ccc(F)c(F)c1)n1c(C(=O)OC)c(-c2cc(C)on2)[nH]c1=S (stereo not drawn) [Compound 49] |
| 102.8 to 102.9 °C |  |  |  | COCC(c1ccc(F)c(F)c1)n1c(C(=O)OC)c(-c2nnc(C)o2)[nH]c1=S (stereo not drawn) [Compound 50] |
|  |  | 474 nM | 39.8 nM | CCC(c1ccc(Cl)c(Cl)c1)n1c(C(=O)OC)c(-c2cccnc2)[nH]c1=S (stereo not drawn) [Compound 51] |

| SMILES | melting point | Ki (CCR2B) | IC50 (CCR2 [1]) | IC50 (CCR2 [2]) |
| --- | --- | --- | --- | --- |
| CCC(c1ccc(Cl)c(Cl)c1)n1c(C(=O)OC)c(-c2ccccn2)[nH]c1=S (stereo not drawn) [Compound 32] |  |  |  | 25.1 nM |
| CCCC(c1ccc(Cl)c(Cl)c1)n1c(C(=O)OC)c(-c2nnc(C)o2)[nH]c1=S (stereo not drawn) [Compound 40] |  |  |  | 43.7 nM |
